Laboratory results: PMC10825133, “Repurposing proteasome inhibitors for improved treatment of triple-negative breast cancer” (Cell Death Discovery, 2024)
Read-outs that look alike come from different tables or passages of the source.

Legend:
CAL-148 cells = assay: Resazurin-based cell viability assay, monotherapy drug screen; set-up: species or system human; AUC: unit not given beside the values; conditions: for AUC: area under the dose response curve, 24 h; for GRmax: drug efficacy at highest tested dose (<0 cytotoxic, 0 cytostatic, >0 partial growth inhibition)
Experimental: (§1) Eighteen pharmaceutical compounds were purchased from Selleckchem (Supplementary Table 2). Stock solutions were prepared using dimethyl sulfoxide (DMSO; Merck), physiological saline (sodium chloride 0.9%) or Milli-Q water, and stored at −80 °C. […] Matched concentration solvent vehicle controls were used for each drug concentration. The drug screens were performed in triplicate and repeated three (monotherapy) or two (combination therapy) times (Fig. 7).
(§2) The optimal seeding density per 96-well was determined for each cell line as previously described. The cells were seeded at a density of 4.0 × 10^3 to 7.5 × 10^3 (cell type dependent) in 96-well clear, flat-bottom microplates (Corning Life Sciences, Sigma-Aldrich) in 100 µl complete culture medium (Supplementary Table 1) and cultured for 24 h. Cell viability was determined using the resazurin assay in untreated cells at the time of plating (t = 0) and treated cells after 24 h drug treatment (Fig. 7). Percentage cell viability was calculated as 100% × (absorbance of treated cells – absorbance of background controls) / (absorbance of matched solvent vehicle controls – absorbance of background controls). The area under the curve (AUC), half-maximal inhibitory concentration (IC50), drug potency (GR50), and drug efficacy (GRmax) were determined for each compound using the GRmetrics (version 1.20.0) package in R. The monotherapy data were evaluated with the IDACombo (version 1.0.2) package in R to predict potential drug combinations (Table 1). SynergyFinder (version 3.2.10) package in R was used to identify synergistic drug combinations.
(§3) Eighteen pharmaceutical compounds were purchased from Selleckchem. […] The solubility of the compound was enhanced by pre-heating the solvent (lukewarm), if necessary. […] The stock solutions were stored at -80°C. […] Matched concentration solvent vehicle controls were used for each drug concentration. The drug screens were performed in triplicate and repeated three times for the monotherapies and twice for the combination treatments. The drug(s) and corresponding controls were plated in 96-well PCR plates (VWR) and stored at -20°C (Fig. 6). The drug plates were thawed, centrifuged (3000 rpm for 30s), and acclimatized to RT before the drugs were added to the cells. New drug plates were prepared for each drug screen.
Cell viability was measured daily (day 0 [plating day] to day 4) using 0.2 mg/ml resazurin solution prepared from resazurin sodium salt (Fisher Scientific) dissolved in sterile 1xPBS (ThermoFisher Scientific). Before use, the resazurin solution was brought to RT before 10 µl (10% of cell medium volume) was added to each 96-well and incubated for 4h at 37°C. […] The slope of the curve was used to determine the optimal seeding density, i.e., the highest seeding density with linear growth between days 1 and 3.
(§4) The cells were seeded at a density of 4.0x10^3 to 7.5x10^3 (cell type-dependent) in 96-well clear, flat-bottom microplates (Corning Life Sciences, Sigma-Aldrich) in 100 µl culture medium supplemented with 10% FBS and cultured for 24h. Cell viability was determined using the resazurin assay after 24h drug treatment (Fig. 6). Percentage cell viability was calculated as 100% × (absorbance of treated cells – absorbance of background controls) / (absorbance of matched solvent vehicle controls – absorbance of background controls). Normalized growth rate inhibition (GR) was assessed using the absorbance of untreated cells after the time of plating (t = 0). […] For combination treatment, the monotherapy data were evaluated with the IDACombo (version 1.0.2)[20] package in R to predict potential drug combinations (Table 1). SynergyFinder (version 3.2.10)[21] package in R was used to identify synergistic drug combinations.

BT-549 cells = assay: as above; set-up: species or system human; AUC: scale not given here; conditions: for AUC: area under the dose response curve, 24 h; for GRmax: drug efficacy at highest tested dose (<0 cytotoxic, 0 cytostatic, >0 partial growth inhibition)
Experimental: (§5) Eighteen pharmaceutical compounds were purchased from Selleckchem. […] The stock solutions were stored at -80°C. […] New drug plates were prepared for each drug screen.
(§6) To determine the optimal seeding density and ensure that the cells were in the exponential phase during the duration of the experiment (approx. 52h), each cell line (BT-549, CAL-148, HCC1806, HCC38, HCC70, MCF-10A, MCF-7, MDA-MB-436, MDA-MB-453, and MDA-MB-468) was seeded at different concentrations (1000 to 16000 cells) per 96-well, as previously described. Cell viability was measured daily (day 0 [plating day] to day 4) using 0.2 mg/ml resazurin solution prepared from resazurin sodium salt (Fisher Scientific) dissolved in sterile 1xPBS (ThermoFisher Scientific). Before use, the resazurin solution was brought to RT before 10 µl (10% of cell medium volume) was added to each 96-well and incubated for 4h at 37°C. The absorbance was measured with a 560 nm excitation filter and a 615 nm emission filter in a Wallac 1420 VICTOR2™ microplate reader (Perkin Elmer). The slope of the curve was used to determine the optimal seeding density, i.e., the highest seeding density with linear growth between days 1 and 3.

HCC1806 cells = assay: as above; set-up: species or system human; AUC: scale not given here; conditions: for AUC: area under the dose response curve, 24 h; for GRmax: drug efficacy at highest tested dose (<0 cytotoxic, 0 cytostatic, >0 partial growth inhibition); for IC50: Homo sapiens
Experimental: as §5, §6

HCC38 cells = assay: as above; set-up: species or system human; AUC: scale not given here; conditions: for AUC: area under the dose response curve, 24 h; for GRmax: drug efficacy at highest tested dose (<0 cytotoxic, 0 cytostatic, >0 partial growth inhibition)
Experimental: as §5, §6

HCC70 cells = assay: as above; set-up: species or system human; AUC: scale not given here; conditions: for AUC: area under the dose response curve, 24 h; for GRmax: drug efficacy at highest tested dose (<0 cytotoxic, 0 cytostatic, >0 partial growth inhibition)
Experimental: as §5, §6

MCF-7 cells = assay: as above; set-up: species or system human; AUC: scale not given here; conditions: for AUC: area under the dose response curve, 24 h; for GRmax: drug efficacy at highest tested dose (<0 cytotoxic, 0 cytostatic, >0 partial growth inhibition)
Experimental: as §5, §6

MDA-MB-436 cells = assay: as above; set-up: species or system human; AUC: scale not given here; conditions: for AUC: area under the dose response curve, 24 h; for GRmax: drug efficacy at highest tested dose (<0 cytotoxic, 0 cytostatic, >0 partial growth inhibition)
Experimental: as §5, §6

MDA-MB-468 cells = assay: as above; set-up: species or system human; AUC: scale not given here; conditions: for AUC: area under the dose response curve, 24 h
Experimental: as §5, §6

[1] = system: eight TNBC cell lines (BT-549, CAL-148, HCC1806, HCC38, HCC70, MDA-MB-436, MDA-MB-453, MDA-MB-468); assay: Monotherapy drug screen, mean across the TNBC cell lines; conditions: for cytotoxic effect at the highest dose: by GRmax
Experimental: as §1, §2, §3, §4

| Structure (SMILES) | AUC (CAL-148 cells; CAL-148) | GRmax (CAL-148 cells; CAL-148) | AUC (BT-549 cells; BT-549) | GRmax (BT-549 cells; BT-549) | AUC (HCC1806 cells; HCC1806) | GRmax (HCC1806 cells; HCC1806) | AUC (HCC38 cells; HCC38) | GRmax (HCC38 cells; HCC38) | AUC (HCC70 cells; HCC70) | GRmax (HCC70 cells; HCC70) | AUC (MCF-7 cells; MCF-7) | GRmax (MCF-7 cells; MCF-7) | AUC (MDA-MB-436 cells; MDA-MB-436) | GRmax (MDA-MB-436 cells; MDA-MB-436) | AUC (MDA-MB-468 cells; MDA-MB-468) | cytotoxic effect at the highest dose ([1]; TNBC cell lines) | other results |
| --- | --- | --- | --- | --- | --- | --- | --- | --- | --- | --- | --- | --- | --- | --- | --- | --- | --- |
| N.N.O=C([O-])C1(C(=O)[O-])CCC1.[Pt+2] [Carboplatin] | 0.92 | 0.03 | 0.85 | 0.39 | 0.90 | 0.53 | 0.88 | 0.03 | 0.83 | −0.42 | 0.91 | −0.15 | 0.91 | 0.41 | 0.81 | lowest cytotoxic effects | IC50 (CAL-148 cells; CAL-148, 24 h drug treatment, read-out: IC50): 0.93 µM; IC50 (CAL-148 cells; CAL-148, growth rate inhibition concentration at GR(c) = 0.5, 24 h, read-out: GR50 (the source's name)): 0.49 µM; IC50 (BT-549 cells; BT-549, growth rate inhibition concentration at GR(c) = 0.5, 24 h, read-out: GR50 (the source's name)): 0.67 µM; IC50 (HCC38 cells; HCC38, 24 h drug treatment, read-out: IC50): 0.89 µM; IC50 (HCC38 cells; HCC38, growth rate inhibition concentration at GR(c) = 0.5, 24 h, read-out: GR50 (the source's name)): 0.43 µM; IC50 (HCC70 cells; HCC70, 24 h drug treatment, read-out: IC50): 0.45 µM; IC50 (HCC70 cells; HCC70, growth rate inhibition concentration at GR(c) = 0.5, 24 h, read-out: GR50 (the source's name)): 0.27 µM; IC50 (MCF-7 cells; MCF-7, growth rate inhibition concentration at GR(c) = 0.5, 24 h, read-out: GR50 (the source's name)): 0.36 µM; IC50 (MDA-MB-436 cells; MDA-MB-436, growth rate inhibition concentration at GR(c) = 0.5, 24 h, read-out: GR50 (the source's name)): 0.87 µM; IC50 (MDA-MB-468 cells; MDA-MB-468, 24 h drug treatment, read-out: IC50): 0.47 µM; GRmax (MDA-MB-468 cells; MDA-MB-468, drug efficacy at highest tested dose (<0 cytotoxic, 0 cytostatic, >0 partial growth inhibition)): 0.02; IC50 (MDA-MB-468 cells; MDA-MB-468, growth rate inhibition concentration at GR(c) = 0.5, 24 h, read-out: GR50 (the source's name)): 0.24 µM |
| CC(C)C[C@H](NC(=O)[C@H](CCc1ccccc1)NC(=O)CN1CCOCC1)C(=O)N[C@@H](Cc1ccccc1)C(=O)N[C@@H](CC(C)C)C(=O)[C@@]1(C)CO1 [Carfilzomib] | 0.84 | −0.01 | 0.67 | 0.37 | 0.73 | 0.31 | 0.71 | −0.99 | 0.76 | −0.57 | 0.81 | −0.45 | 0.73 | −0.89 | 0.65 |  | IC50 (CAL-148 cells; Homo sapiens, CAL-148, growth rate inhibition concentration at GR(c) = 0.5, 24 h, read-out: GR50 (the source's name)): 0.37 µM; IC50 (BT-549 cells; Homo sapiens, BT-549, 24 h drug treatment, read-out: IC50): 4.4 µM; IC50 (BT-549 cells; Homo sapiens, BT-549, growth rate inhibition concentration at GR(c) = 0.5, 24 h, read-out: GR50 (the source's name)): 1 µM; IC50 (HCC1806 cells; HCC1806, 24 h drug treatment, read-out: IC50): 1.7 µM; IC50 (HCC1806 cells; HCC1806, growth rate inhibition concentration at GR(c) = 0.5, 24 h, read-out: GR50 (the source's name)): 0.95 µM; IC50 (HCC38 cells; Homo sapiens, HCC38, 24 h drug treatment, read-out: IC50): 0.57 µM; IC50 (HCC38 cells; Homo sapiens, HCC38, growth rate inhibition concentration at GR(c) = 0.5, 24 h, read-out: GR50 (the source's name)): 0.38 µM; IC50 (HCC70 cells; Homo sapiens, HCC70, 24 h drug treatment, read-out: IC50): 2.1 µM; IC50 (HCC70 cells; Homo sapiens, HCC70, growth rate inhibition concentration at GR(c) = 0.5, 24 h, read-out: GR50 (the source's name)): 0.48 µM; IC50 (MCF-7 cells; Homo sapiens, MCF7, MCF-7, growth rate inhibition concentration at GR(c) = 0.5, 24 h, read-out: GR50 (the source's name)): 0.19 µM; IC50 (MDA-MB-436 cells; Homo sapiens, MDA-MB-436, growth rate inhibition concentration at GR(c) = 0.5, 24 h, read-out: GR50 (the source's name)): 0.0018 µM; IC50 (MDA-MB-468 cells; Homo sapiens, MDA-MB-468, 24 h drug treatment, read-out: IC50): 0.46 µM; IC50 (MDA-MB-468 cells; Homo sapiens, MDA-MB-468, growth rate inhibition concentration at GR(c) = 0.5, 24 h, read-out: GR50 (the source's name)): 0.11 µM; IC50 ([1]; Homo sapiens, 24 h, read-out: GR50 (mean ± SD)): 0.44 ± 0.34 µM; area under the dose response curve (AUC), mean ± SD ([1]; TNBC cell lines, 24 h): 0.73 ± 0.10 |
| CC1=C(O)C(=O)C=C2C1=CC=C1[C@@]2(C)CC[C@@]2(C)[C@@H]3C[C@](C)(C(=O)O)CC[C@]3(C)CC[C@]12C [Celastrol] | 0.85 | −0.84 | 0.82 | −0.51 | 0.81 | −0.82 | 0.79 | −0.96 | 0.82 | −0.98 | 0.89 | −0.30 | 0.85 | −0.63 | 0.75 | cytotoxic | IC50 (CAL-148 cells; Homo sapiens, CAL-148, 24 h): 3.7 µM; IC50 (CAL-148 cells; Homo sapiens, CAL-148, 24 h, read-out: GR50 (µM)): 3.1 µM; IC50 (BT-549 cells; Homo sapiens, BT-549, 24 h): 1.3 µM; IC50 (BT-549 cells; Homo sapiens, BT-549, 24 h, read-out: GR50 (µM)): 1.5 µM; IC50 (HCC1806 cells; HCC1806, 24 h): 2.1 µM; IC50 (HCC1806 cells; HCC1806, 24 h, read-out: GR50 (µM)): 3.4 µM; IC50 (HCC38 cells; Homo sapiens, HCC38, 24 h): 1.4 µM; IC50 (HCC38 cells; Homo sapiens, HCC38, 24 h, read-out: GR50 (µM)): 1.2 µM; IC50 (HCC70 cells; Homo sapiens, HCC70, 24 h): 1.8 µM; IC50 (HCC70 cells; Homo sapiens, HCC70, 24 h, read-out: GR50 (µM)): 1.2 µM; IC50 (MCF-7 cells; Homo sapiens, MCF7, 24 h): 2.8 µM; IC50 (MCF-7 cells; Homo sapiens, MCF7, 24 h, read-out: GR50 (µM)): 3.3 µM; IC50 (MDA-MB-436 cells; Homo sapiens, MDA-MB-436, 24 h): 3.2 µM; IC50 (MDA-MB-436 cells; Homo sapiens, MDA-MB-436, 24 h, read-out: GR50 (µM)): 2.4 µM; IC50 (MDA-MB-468 cells; Homo sapiens, MDA-MB-468, 24 h): 1 µM; IC50 (MDA-MB-468 cells; Homo sapiens, MDA-MB-468, 24 h, read-out: GR50 (µM)): 0.75 µM |
